Data: the Kinase Knowledgebase extract (Sharma et al. 2016)

molecular target: PIK3CA (human) (UniProt P42336); test: Cell-Based Assay; settings: bt20
Sequence (P42336 whole entry, looked up): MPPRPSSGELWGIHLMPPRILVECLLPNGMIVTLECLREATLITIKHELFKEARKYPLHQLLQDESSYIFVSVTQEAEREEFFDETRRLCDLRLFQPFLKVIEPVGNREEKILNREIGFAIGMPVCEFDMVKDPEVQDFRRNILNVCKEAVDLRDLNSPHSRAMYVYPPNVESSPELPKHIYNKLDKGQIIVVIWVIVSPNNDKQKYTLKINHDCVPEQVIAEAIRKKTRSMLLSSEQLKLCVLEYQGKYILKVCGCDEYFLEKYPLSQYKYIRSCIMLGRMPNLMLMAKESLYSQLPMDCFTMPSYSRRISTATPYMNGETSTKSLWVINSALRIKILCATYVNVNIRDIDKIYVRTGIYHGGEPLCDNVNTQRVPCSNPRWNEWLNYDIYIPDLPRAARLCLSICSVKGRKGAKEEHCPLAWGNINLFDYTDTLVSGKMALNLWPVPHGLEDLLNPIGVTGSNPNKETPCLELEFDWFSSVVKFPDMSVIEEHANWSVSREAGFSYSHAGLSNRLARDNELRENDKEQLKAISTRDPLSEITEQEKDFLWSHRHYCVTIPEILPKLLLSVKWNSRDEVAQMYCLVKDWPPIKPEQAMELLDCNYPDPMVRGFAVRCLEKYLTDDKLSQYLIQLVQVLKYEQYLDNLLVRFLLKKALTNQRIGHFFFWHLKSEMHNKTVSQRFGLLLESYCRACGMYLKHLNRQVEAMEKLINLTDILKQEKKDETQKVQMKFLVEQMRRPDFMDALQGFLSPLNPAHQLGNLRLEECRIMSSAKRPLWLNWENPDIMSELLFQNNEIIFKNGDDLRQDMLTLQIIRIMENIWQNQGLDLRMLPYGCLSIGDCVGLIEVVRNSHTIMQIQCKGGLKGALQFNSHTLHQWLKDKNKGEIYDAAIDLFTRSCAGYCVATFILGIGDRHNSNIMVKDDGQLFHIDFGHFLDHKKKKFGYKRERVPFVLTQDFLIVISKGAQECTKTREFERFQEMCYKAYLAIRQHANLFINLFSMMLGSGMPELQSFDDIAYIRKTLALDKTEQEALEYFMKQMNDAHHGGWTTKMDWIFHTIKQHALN

SMILES | IC50 [nM]
O=C(OCc1ccccc1)N1CCC(n2c(=O)[nH]c3cnc4ccc(-c5cnc6ccccc6c5)nc4c32)CC1 | 32.2
Cn1c(=O)n([C@H]2CC[C@H](OCCO)CC2)c2c3nc(-c4cnc5ccccc5c4)ccc3ncc21 | 10.7
CC(=O)N1CCC(n2c(=O)n(C)c3cnc4ccc(-c5ccc(N)nc5)nc4c32)CC1 | 9.17
CNC(=O)N1CCC(n2c(=O)n(C)c3cnc4ccc(-c5ccc(OC)nc5)nc4c32)CC1 | 9.19
Cc1ccc(-c2ccc3ncc4c(c3n2)n([C@H]2CC[C@H](O)CC2)c(=O)n4C)cn1 | 18.5
C[C@@H](O)C(=O)N1CCC(n2c(=O)n(C)c3cnc4ccc(-c5cnc6[nH]ncc6c5)nc4c32)CC1 | 29.4
CC(C)OC(=O)N1CCC(n2c(=O)n(C)c3cnc4ccc(-c5cnc6ccccc6c5)nc4c32)CC1 | 19.6
CN[C@H]1CC[C@H](n2c(=O)n(C)c3cnc4ccc(-c5cnc6ccccc6c5)nc4c32)CC1 | 404
Cn1cc(-c2ccc3ncc4c(c3n2)n(-c2ccc(C(C)(C)C#N)cc2)c(=O)n4C)cn1 | 116
COc1ccc(-c2ccc3ncc4[nH]c(=O)n(Cc5ccccc5)c4c3n2)cn1 | 24.5
CC(=O)N1CCC(n2c(=O)n(C)c3cnc4ccc(-c5cccc6ncccc56)nc4c32)CC1 | 194
CC(=O)N1CCC(n2c(=O)n(C)c3cnc4ccc(-c5ccnc6[nH]ncc56)nc4c32)CC1 | 140
COc1ncc(-c2ccc3ncc4c(c3n2)n(C2CCNCC2)c(=O)n4C)cn1 | 333
Cn1cc(-c2ccc3ncc4c(c3n2)n([C@H]2CC[C@H](C(N)=O)CC2)c(=O)n4C)cn1 | 224
Cn1cc(-c2ccc3ncc4[nH]c(=O)n(-c5ccc(C(C)(C)C#N)cc5)c4c3n2)cn1 | 97.3
Cn1c(=O)n(C2CCN(C(=O)CO)CC2)c2c3nc(-c4cnc5[nH]ncc5c4)ccc3ncc21 | 59.4
COc1ncc(-c2ccc3ncc4c(c3n2)n(C2CCN(C(C)=O)CC2)c(=O)n4C)cn1 | 34.6
CN(C)c1ccc(-c2ccc3ncc4c(c3n2)n(C2CCN(CCO)CC2)c(=O)n4C)cn1 | 32.5
COc1ccc(-c2ccc3ncc4[nH]c(=O)n([C@H]5CC[C@H](O)CC5)c4c3n2)cn1 | 46.8
CC(=O)N1CCC(n2c(=O)n(C)c3cnc4ccc(-c5cnn(C)c5)nc4c32)CC1 | 133
CCNC(=O)N1CCC(n2c(=O)n(C)c3cnc4ccc(-c5cnc6ccccc6c5)nc4c32)CC1 | 17
Cn1c(=O)n(C2CCOCC2)c2c3nc(-c4cnc(N)nc4)ccc3ncc21 | 6.94

SMILES | IC50 [nM]
Cn1c(=O)n([C@H]2CC[C@H](O)CC2)c2c3nc(-c4cnc5ccccc5c4)ccc3ncc21 | 5.21
Cn1cc(-c2ccc3ncc4c(c3n2)n([C@H]2CC[C@H](O)CC2)c(=O)n4C)cn1 | 107
Cn1c(=O)n(-c2ccc(C(C)(C)C#N)cc2)c2c3nc(-c4cnc5ccccc5c4)ccc3ncc21 | 3.54
CNC(=O)N1CCC(n2c(=O)n(C)c3cnc4ccc(-c5ccc(C)nc5)nc4c32)CC1 | 59.4
COc1ncc(-c2ccc3ncc4c(c3n2)n(C2CCN(CCO)CC2)c(=O)n4C)cn1 | 124
COc1ccc(-c2ccc3ncc4[nH]c(=O)n([C@H]5CC[C@H](OCCO)CC5)c4c3n2)cn1 | 38.4
CC(C)(C#N)c1ccc(-n2c(=O)[nH]c3cnc4ccc(-c5cnc6ccccc6c5)nc4c32)cc1 | 6.47
Cn1c(=O)n(C2CCOCC2)c2c3nc(-c4ccn[nH]4)ccc3ncc21 | 309
COc1ccc(-c2ccc3ncc4c(c3n2)n(C2CCN(C(C)=O)CC2)c(=O)n4C)cc1 | 11.3
CNC(=O)N1CCC(n2c(=O)n(C)c3cnc4ccc(-c5cnc(OC)nc5)nc4c32)CC1 | 68.1
CCC(=O)N1CCC(n2c(=O)n(C)c3cnc4ccc(-c5cnc6ccccc6c5)nc4c32)CC1 | 7.86
CC(C)C(=O)N1CCC(n2c(=O)n(C)c3cnc4ccc(-c5cnc6ccccc6c5)nc4c32)CC1 | 29.4
C[C@@H](O)C(=O)N1CCC(n2c(=O)n(C)c3cnc4ccc(-c5ccc(N(C)C)nc5)nc4c32)CC1 | 5.53
Cc1ccc(-c2ccc3ncc4c(c3n2)n(C2CCN(C(=O)CN(C)C)CC2)c(=O)n4C)cn1 | 42.7
Cc1ccc(-c2ccc3ncc4c(c3n2)n(C2CCN(CCO)CC2)c(=O)n4C)cn1 | 35.6
COc1ccc(-c2ccc3ncc4c(c3n2)n(C2CCN(CC(N)=O)CC2)c(=O)n4C)cn1 | 7.14
CC(=O)N1CCC(n2c(=O)n(C)c3cnc4ccc(-c5ccc(N(C)C)nc5)nc4c32)CC1 | 17.2
Cc1ccc(-c2ccc3ncc4c(c3n2)n([C@H]2CC[C@H](OCCO)CC2)c(=O)n4C)cn1 | 8.63
Cc1ccc(-c2ccc3ncc4c(c3n2)n(C2CCOCC2)c(=O)n4CCO)cn1 | 428
Cn1c(=O)n([C@H]2CC[C@H](O)CC2)c2c3nc(-c4cnn(CCO)c4)ccc3ncc21 | 448
CN(C)c1ccc(-c2ccc3ncc4c(c3n2)n(C2CCN(C(=O)C(C)(C)C)CC2)c(=O)n4C)cn1 | 21.4
COCCn1c(=O)n(C)c2cnc3ccc(-c4ccc(OC)nc4)nc3c21 | 207

SMILES | IC50 [nM]
Cn1c(=O)n(C2CCOCC2)c2c3nc(-c4cnn(CCO)c4)ccc3ncc21 | 579
CN(C)c1ccc(-c2ccc3ncc4c(c3n2)n(C2CCNCC2)c(=O)n4C)cn1 | 24.6
COc1ncc(-c2ccc3ncc4c(c3n2)n(C2CCN(C(=O)CO)CC2)c(=O)n4C)cn1 | 27.2
C[C@H](CO)n1c(=O)n(C)c2cnc3ccc(-c4cccc5[nH]ccc45)nc3c21 | 55.3
C[C@@H](CO)n1c(=O)n(C)c2cnc3ccc(-c4cnn(C)c4)nc3c21 | 5040
Cn1cc(-c2ccc3ncc4c(c3n2)n(C2CCN(C(=O)C(C)(C)O)CC2)c(=O)n4C)cn1 | 30.4
CN1CCC(n2c(=O)n(C)c3cnc4ccc(-c5cnc6ccccc6c5)nc4c32)CC1 | 11.7
COc1ccc(-c2ccc3ncc4c(c3n2)n([C@@H](C)CO)c(=O)n4C)cn1 | 266
Cn1c(=O)n([C@H]2CC[C@H](O)CC2)c2c3nc(-c4cnc(N)nc4)ccc3ncc21 | 3.36
CNC(=O)N1CCC(n2c(=O)n(C)c3cnc4ccc(-c5ccc(N(C)C)nc5)nc4c32)CC1 | 24.3
Cn1c(=O)n(C2CCOCC2)c2c3nc(-c4cn[nH]c4)ccc3ncc21 | 18.3
Cc1ccc(-c2ccc3ncc4c(c3n2)n(C2CCN(C)CC2)c(=O)n4C)cn1 | 22.8
COCC(=O)N1CCC(n2c(=O)n(C)c3cnc4ccc(-c5cnc(OC)nc5)nc4c32)CC1 | 12.3
Cc1ccc(-c2ccc3ncc4c(c3n2)n(C2CCN(C(N)=O)CC2)c(=O)n4C)cn1 | 112
O=c1[nH]c2cnc3ccc(-c4cnc5ccccc5c4)nc3c2n1C1CCNCC1 | 353
Cc1ccc(-c2ccc3ncc4c(c3n2)n([C@H](C)CO)c(=O)n4C)cn1 | 269
Cn1c(=O)n(C2CCN(C(=O)C(C)(C)O)CC2)c2c3nc(-c4cnc5[nH]ncc5c4)ccc3ncc21 | 9.91
Cn1c(=O)n(C2CCN(C(=O)OCc3ccccc3)CC2)c2c3nc(-c4cnc5ccccc5c4)ccc3ncc21 | 13.4
COc1ccc(-c2ccc3ncc4c(c3n2)n(C2CCN(C(=O)[C@H](C)O)CC2)c(=O)n4C)cc1 | 14
Cn1cc(-c2ccc3ncc4c(c3n2)n(C2CCN(CC(N)=O)CC2)c(=O)n4C)cn1 | 232
COC(=O)N1CCC(n2c(=O)n(C)c3cnc4ccc(-c5cnc6ccccc6c5)nc4c32)CC1 | 8.07
CN(C)c1ccc(-c2ccc3ncc4c(c3n2)n(C2CCN(CC(F)(F)F)CC2)c(=O)n4C)cn1 | 18.2
